The text below walks through data of patent US20100160279A1, “Azetidine Derivatives as Muscarinic Receptor Antagonists” (Pfizer Inc, priority 2006, published 2010).

Each structure is given as a SMILES string.

For the assay, the target named is T1, human muscarinic M3 receptor (Homo sapiens, UniProt P20309).
T1 construct: expressed in transfected cells
T1 sequence (P20309 whole entry): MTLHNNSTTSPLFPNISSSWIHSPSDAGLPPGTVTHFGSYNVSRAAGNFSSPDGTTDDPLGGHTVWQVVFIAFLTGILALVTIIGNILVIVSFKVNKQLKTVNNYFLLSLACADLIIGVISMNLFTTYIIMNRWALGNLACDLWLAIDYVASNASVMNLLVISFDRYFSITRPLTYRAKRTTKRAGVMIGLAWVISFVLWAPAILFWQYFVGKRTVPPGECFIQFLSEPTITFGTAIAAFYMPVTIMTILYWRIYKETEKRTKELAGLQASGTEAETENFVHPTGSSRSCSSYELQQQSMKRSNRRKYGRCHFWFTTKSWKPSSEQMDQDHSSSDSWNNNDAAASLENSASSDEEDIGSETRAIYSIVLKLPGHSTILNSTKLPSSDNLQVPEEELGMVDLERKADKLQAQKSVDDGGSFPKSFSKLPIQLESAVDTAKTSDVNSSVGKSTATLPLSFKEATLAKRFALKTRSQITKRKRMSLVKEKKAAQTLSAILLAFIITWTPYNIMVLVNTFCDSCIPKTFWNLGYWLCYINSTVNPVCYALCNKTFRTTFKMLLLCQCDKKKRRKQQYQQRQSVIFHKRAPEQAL
The assay is described as follows: hM3 β-Lac potency assay (cell based β-lactamase, inhibition of carbamyl choline induced signal). Conditions: CHO cells expressing human M3 receptor with NFAT-β-lactamase reporter; 80 nM carbamyl choline, 4 h; IC50 converted to Ki by Cheng-Prusoff. The method, then: M3 potency was determined in CHO-K1 cells transfected with the NFAT-Betalactamase gene. CHO (Chinese Hamster Ovary) cells recombinantly expressing the human muscarinic M3 receptor were transfected with the NFAT_β-Lac_Zeo plasmid.
The cells were re-suspended at 2×10^5 cells/ml in growth medium (composition as described above). […] Muscarinic M3 receptor signalling was stimulated using 80 nM carbamyl choline (Aldrich N240-9) incubated with the cells for 4 h at 37° C./5% CO2 and monitored at the end of the incubation period using a Tecan SpectraFluor+ plate reader (λ-excitation 405 nm, emission 450 nm and 503 nm). […] Inhibition curves were plotted and IC50 values generated using a 4-parameter sigmoid fit and converted to Ki values using the Cheng-Prusoff correction and the KD value for carbamyl choline in the assay.
By Ki is commonly meant the equilibrium dissociation constant of an inhibitor or competing ligand from its target. A low value points to a stronger hold on the target. In the case of `CC(C)(CCC(C(N)=O)(c1ccccc1)c1ccccc1)N1CC(NCc2ccccc2)C1` [Example 2, 5-(3-Benzylamino-azetidin-1-yl)-5-methyl-2,2-diphenyl-hexanoic acid amide], the Ki was 0.556 nM.

The compound `CC(C)(CCC(C(N)=O)(c1ccccc1)c1ccccc1)N1CC(Sc2cccc(O)c2)C1` [Example 15, 5-[3-(3-Hydroxy-phenylsulfanyl)-azetidin-1-yl]-5-methyl-2,2-diphenyl-hexanoic acid amide] returned a Ki of 0.368 nM.

`CC(C)(CCC(C(N)=O)(c1ccccc1)c1ccccc1)N1CC(NCc2ccc(Cl)c(O)c2)C1` [Example 12, 5-[3-(4-Chloro-3-hydroxy-benzylamino)-azetidin-1-yl]-5-methyl-22-diphenyl-hexanoic acid amide] yielded an inhibition constant (Ki) of 0.905 nM.

Compound `CC(C)(CCC(C#N)(c1ccccc1)c1ccccc1)N1CC(NCc2cc(Cl)ccc2O)C1` [Example 8, 5-[3-(5-Chloro-2-hydroxy-benzylamino)-azetidin-1-yl]-5-methyl-2,2-diphenyl-hexanenitrile] had a Ki above 315 nM.

`CC(C)(CCC(C(N)=O)(c1ccccc1)c1ccccc1)N1CC(NCc2cccc(O)c2)C1` [Example 6, 5-[3-(3-Hydroxy-benzylamino)-azetidin-1-yl]-5-methyl-2,2-diphenyl-hexanoic acid amide] gave a Ki of 0.727 nM. This counts as sub-nanomolar.

Compound `CC(C)(CCC(C(N)=O)(c1ccccc1)c1ccccc1)N1CC(NCc2cc(F)ccc2O)C1` [Example 5, 5-[3-(5-Fluoro-2-hydroxy-benzylamino)-azetidin-1-yl]-5-methyl-2,2-diphenyl-hexanoic acid amide] showed a Ki of 2.53 nM. This Ki is about 3.5-fold higher than that of the compound before.

The compound `CC(C)(CCC(C#N)(c1ccccc1)c1ccccc1)N1CC(NCc2cc(F)ccc2O)C1` [Example 7, 5-[3-(5-Fluoro-2-hydroxy-benzylamino)-azetidin-1-yl]-5-methyl-2,2-diphenyl-hexanenitrile] came in with a Ki of 4.37 nM.

The compound `CC(C)(CCC(C(N)=O)(c1ccccc1)c1ccccc1)N1CC(NCc2cccc(O)c2Cl)C1` [Example 3, 5-[3-(2-Chloro-3-hydroxy-benzylamino)-azetidin-1-yl]-5-methyl-2,2-diphenyl-hexanoic acid amide] displayed a Ki of 2.08 nM.

As to `CC(C)(CCC(C(N)=O)(c1ccccc1)c1ccccc1)N1CC(NCc2ccc(F)c(O)c2)C1` [Example 10, 5-[3-(4-Fluoro-3-hydroxy-benzylamino)-azetidin-1-yl]-5-methyl-2,2-diphenyl-hexanoic acid amide], affinity was put at a Ki of 0.396 nM.

As to `CC(C)(CCC(C(N)=O)(c1ccccc1)c1ccccc1)N1CC(NCc2cc(Cl)ccc2O)C1` [Example 4, 5-[3-(5-Chloro-2-hydroxy-benzylamino)-azetidin-1-yl]-5-methyl-2,2-diphenyl-hexanoic acid amide], the Ki turned out to be 56.8 nM.

In turn, `CC(C)(CCC(C(N)=O)(c1ccccc1)c1ccccc1)N1CC(NCc2ccccc2O)C1` [Example 9, 5-[3-(2-Hydroxy-benzylamino)-azetidin-1-yl]-5-methyl-2,2-diphenyl-hexanoic acid amide] showed a Ki of 0.594 nM.
